Patent US20240208956A1, “1,3,4-OXADIAZOLE THIOCARBONYL COMPOUNDS AS HISTONE DEACETYLASE 6 INHIBITOR, AND PHARMACEUTICAL COMPOSITION COMPRISING THE SAME” (CHONG KUN DANG PHARMACEUTICAL CORP., priority 2021, published 2024)

Tests used:
[1] = target: HDAC6 human recombinant (Homo sapiens (Human), UniProt Q9UBN7); assay: HDAC enzyme activity inhibition (in vitro), HDAC6 fluorimetric assay; assay type: biochemical; conditions: samples at 0.1-1000 nM; 37° C. 60 minutes; fluorescence Ex 390 nm, Em 460 nm
Experimental: Confirmation of HDAC Enzyme Activity Inhibition (In Vitro)
(§1) An HDAC enzyme inhibitory capacity of test material was measured by using HDAC1 Fluorimetric Drug Discovery Assay Kit (Enzolifesciences: BML-AK511) and HDAC6 human recombinant (Calbiochem: 382180). For a HDAC1 assay, samples were treated at a concentration of 100 nM, 1000 nM and 10000 nM. For an HDAC6 assay, samples were treated at a concentration of 0.1 nM, 1 nM, 10 nM, 100 nM and 1000 nM. After the sample treatment, a reaction was continued at 37° C. for 60 minutes, treated with a developer, and subjected to reaction at 37° C. for 30 minutes, after which fluorescence intensity (Ex 390 nm, Em 460 nm) was measured by using FlexStation3 (Molecular device). For final result values, each […] value was calculated with GraphPad Prism 4.0 program.

[2] = target: HDAC1 (Homo sapiens (Human), UniProt Q13547); assay: HDAC enzyme activity inhibition (in vitro), HDAC1 Fluorimetric Drug Discovery Assay Kit; assay type: biochemical; conditions: samples at 100, 1000 and 10000 nM; 37° C. 60 minutes; fluorescence Ex 390 nm, Em 460 nm
Experimental: Experimental Example 1. Confirmation of HDAC Enzyme Activity Inhibition (In Vitro)
as §1

Chain of HDAC1 (Q13547 whole entry): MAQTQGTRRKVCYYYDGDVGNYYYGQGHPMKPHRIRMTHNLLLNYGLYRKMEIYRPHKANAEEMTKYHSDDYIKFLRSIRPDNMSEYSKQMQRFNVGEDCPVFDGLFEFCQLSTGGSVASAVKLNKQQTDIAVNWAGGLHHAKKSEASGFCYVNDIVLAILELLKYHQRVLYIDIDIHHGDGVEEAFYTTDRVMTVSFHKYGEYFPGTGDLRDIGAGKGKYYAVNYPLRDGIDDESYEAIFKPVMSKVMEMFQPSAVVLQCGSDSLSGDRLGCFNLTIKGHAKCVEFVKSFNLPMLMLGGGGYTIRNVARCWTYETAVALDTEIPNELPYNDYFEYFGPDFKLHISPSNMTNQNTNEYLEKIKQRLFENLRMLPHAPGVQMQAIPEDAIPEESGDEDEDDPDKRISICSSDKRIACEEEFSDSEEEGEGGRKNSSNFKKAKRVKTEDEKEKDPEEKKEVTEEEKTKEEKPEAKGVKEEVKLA
Chain of HDAC6 human recombinant (Q9UBN7 whole entry): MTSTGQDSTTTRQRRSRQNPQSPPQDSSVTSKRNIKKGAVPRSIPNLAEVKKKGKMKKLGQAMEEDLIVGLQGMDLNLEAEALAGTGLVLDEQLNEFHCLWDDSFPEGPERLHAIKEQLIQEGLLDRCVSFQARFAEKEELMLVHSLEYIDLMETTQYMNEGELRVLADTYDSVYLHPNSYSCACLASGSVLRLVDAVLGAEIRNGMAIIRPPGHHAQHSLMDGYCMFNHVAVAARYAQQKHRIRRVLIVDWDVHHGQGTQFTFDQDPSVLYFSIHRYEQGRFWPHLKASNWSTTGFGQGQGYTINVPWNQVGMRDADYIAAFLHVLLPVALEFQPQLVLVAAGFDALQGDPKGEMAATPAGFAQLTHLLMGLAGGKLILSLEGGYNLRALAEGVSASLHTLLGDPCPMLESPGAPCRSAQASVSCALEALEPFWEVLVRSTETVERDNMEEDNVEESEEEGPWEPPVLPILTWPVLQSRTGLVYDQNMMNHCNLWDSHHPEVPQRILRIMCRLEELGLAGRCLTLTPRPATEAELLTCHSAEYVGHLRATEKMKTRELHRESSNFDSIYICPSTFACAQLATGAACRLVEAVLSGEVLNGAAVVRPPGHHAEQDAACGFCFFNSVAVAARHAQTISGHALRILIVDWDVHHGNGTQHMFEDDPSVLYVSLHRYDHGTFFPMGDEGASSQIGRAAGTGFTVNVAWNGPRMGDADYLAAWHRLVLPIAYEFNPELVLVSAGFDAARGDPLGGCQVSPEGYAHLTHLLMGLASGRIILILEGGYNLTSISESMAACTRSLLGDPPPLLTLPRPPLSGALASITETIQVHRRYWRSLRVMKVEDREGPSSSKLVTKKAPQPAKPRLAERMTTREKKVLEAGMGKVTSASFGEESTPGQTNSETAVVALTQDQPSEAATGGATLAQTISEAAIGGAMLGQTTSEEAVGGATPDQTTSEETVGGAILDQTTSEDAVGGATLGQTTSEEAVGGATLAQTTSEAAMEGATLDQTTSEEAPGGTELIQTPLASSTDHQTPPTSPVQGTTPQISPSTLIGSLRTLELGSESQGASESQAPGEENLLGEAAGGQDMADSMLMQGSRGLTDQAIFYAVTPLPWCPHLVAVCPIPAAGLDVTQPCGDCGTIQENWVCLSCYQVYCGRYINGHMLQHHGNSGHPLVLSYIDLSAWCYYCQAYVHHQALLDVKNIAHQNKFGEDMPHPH

Compound	IC50 [1]	IC50 [2]
CN1CC2(C1)CN(C(=S)N(Cc1ccc(-c3nnc(C(F)F)o3)cc1)c1ccc(F)c(Cl)c1)C2 [Compound 26, N-(3-chloro-4-fluorophenyl)-N-(4-(5-(difluoromethyl)-1,3,4-oxadiazol-2-yl)benzyl)-6-methyl-2,6-diazaspiro[3.3]heptan-2-carbothioamide]	89 nM	> 10 µM
Fc1ccc(N(Cc2ccc(-c3nnc(C(F)F)o3)cc2)C(=S)N2CC3(C2)CN(C2COC2)C3)cc1Cl [Compound 27, N-(3-chloro-4-fluorophenyl)-N-(4-(5-(difluoromethyl)-1,3,4-oxadiazol-2-yl)benzyl)-6-(oxetan-3-yl)-2,6-diazaspiro[3.3]heptan-2-carbothioamide]	112 nM	> 10 µM
CC(C)N1CC2(CN(C(=S)N(Cc3ccc(-c4nnc(C(F)F)o4)cc3F)c3ccc(F)c(Cl)c3)C2)C1 [Compound 28, N-(3-chloro-4-fluorophenyl)-N-(4-(5-(difluoromethyl)-1,3,4-oxadiazol-2-yl)-2-fluorobenzyl)-6-isopropyl-2,6-diazaspiro[3.3]heptan-2-carbothioamide]	77 nM	> 10 µM
CC(C)N1CC2(CN(C(=S)N(Cc3ccc(-c4nnc(C(F)F)o4)cc3)c3ccc(F)c(Cl)c3)C2)C1 [Compound 29, N-(3-chloro-4-fluorophenyl)-N-(4-(5-(difluoromethyl)-1,3,4-oxadiazol-2-yl)benzyl)-6-isopropyl-2,6-diazaspiro[3.3]heptan-2-carbothioamide]	70 nM	> 10 µM
CN1CC2(C1)CN(C(=S)N(Cc1ccc(-c3nnc(C(F)F)o3)cc1)c1ccc(F)c(F)c1)C2 [Compound 30, N-(4-(5-(difluoromethyl)-1,3,4-oxadiazol-2-yl)benzyl)-N-(3,4-difluorophenyl)-6-methyl-2,6-diazaspiro[3.3]heptan-2-carbothioamide]	24 nM	> 10 µM
CC(C)N1CC2(CN(C(=S)N(Cc3ccc(-c4nnc(C(F)F)o4)cc3)c3ccc(F)c(F)c3)C2)C1 [Compound 31, N-(4-(5-(difluoromethyl)-1,3,4-oxadiazol-2-yl)benzyl)-N-(3,4-difluorophenyl)-6-isopropyl-2,6-diazaspiro[3.3]heptan-2-carbothioamide]	35 nM	> 10 µM
Fc1ccc(N(Cc2ccc(-c3nnc(C(F)F)o3)cc2)C(=S)N2CC3(C2)CN(C2COC2)C3)cc1F [Compound 32, N-(4-(5-(difluoromethyl)-1,3,4-oxadiazol-2-yl)benzyl)-N-(3,4-difluorophenyl)-6-(oxetan-3-yl)-2,6-diazaspiro[3.3]heptan-2-carbothioamide]	45 nM	> 10 µM
CC(=O)N1CC2(C1)CN(C(=S)N(Cc1ccc(-c3nnc(C(F)F)o3)cc1F)c1ccc(F)c(F)c1)C2 [Compound 33, 6-acetyl-N-(4-(5-(difluoromethyl)-1,3,4-oxadiazol-2-yl)-2-fluorobenzyl)-N-(3,4-difluorophenyl)-2,6-diazaspiro[3.3]heptan-2-carbothioamide]	35 nM	> 10 µM
Fc1ccc(N(Cc2ccc(-c3nnc(C(F)F)o3)cc2F)C(=S)N2CC3(C2)CN(C2COC2)C3)cc1F [Compound 34, N-(4-(5-(difluoromethyl)-1,3,4-oxadiazol-2-yl)-2-fluorobenzyl)-N-(3,4-difluorophenyl)-6-(oxetan-3-yl)-2,6-diazaspiro[3.3]heptan-2-carbothioamide]	47 nM	> 10 µM
CN1CC2(C1)CN(C(=S)N(Cc1ccc(-c3nnc(C(F)F)o3)cc1F)c1cccc(F)c1)C2 [Compound 36, N-(4-(5-(difluoromethyl)-1,3,4-oxadiazol-2-yl)-2-fluorobenzyl)-N-(3-fluorophenyl)-6-methyl-2,6-diazaspiro[3.3]heptan-2-carbothioamide]	43 nM	> 10 µM
CC(C)N1CC2(CN(C(=S)N(Cc3ccc(-c4nnc(C(F)F)o4)cc3F)c3cccc(F)c3)C2)C1 [Compound 37, N-(4-(5-(difluoromethyl)-1,3,4-oxadiazol-2-yl)-2-fluorobenzyl)-N-(3-fluorophenyl)-6-isopropyl-2,6-diazaspiro[3.3]heptan-2-carbothioamide]	67 nM	> 10 µM
Fc1cccc(N(Cc2ccc(-c3nnc(C(F)F)o3)cc2F)C(=S)N2CC3(C2)CN(C2COC2)C3)c1 [Compound 38, N-(4-(5-(difluoromethyl)-1,3,4-oxadiazol-2-yl)-2-fluorobenzyl)-N-(3-fluorophenyl)-6-(oxetan-3-yl)-2,6-diazaspiro[3.3]heptan-2-carbothioamide]	51 nM	> 10 µM
CN1C[C@@H]2C[C@H]1CN2C(=S)N(Cc1ccc(-c2nnc(C(F)F)o2)cc1F)c1ccc(F)cc1 [Compound 39, (1S,4S)—N-(4-(5-(difluoromethyl)-1,3,4-oxadiazol-2-yl)-2-fluorobenzyl)-N-(4-fluorophenyl)-5-methyl-2,5-diazabicyclo[2.2.1]heptan-2-carbothioamide]	30 nM	> 10 µM
CC(C)N1C[C@@H]2C[C@H]1CN2C(=S)N(Cc1ccc(-c2nnc(C(F)F)o2)cc1F)c1ccc(F)cc1 [Compound 40, (1S,4S)—N-(4-(5-(difluoromethyl)-1,3,4-oxadiazol-2-yl)-2-fluorobenzyl)-N-(4-fluorophenyl)-5-isopropyl-2,5-diazabicyclo[2.2.1]heptan-2-carbothioamide]	55 nM	> 10 µM
Fc1ccc(N(Cc2ccc(-c3nnc(C(F)F)o3)cc2F)C(=S)N2C[C@@H]3C[C@H]2CN3C2COC2)cc1 [Compound 41, (1S,4S)—N-(4-(5-(difluoromethyl)-1,3,4-oxadiazol-2-yl)-2-fluorobenzyl)-N-(4-fluorophenyl)-5-(oxetan-3-yl)-2,5-diazabicyclo[2.2.1]heptan-2-carbothioamide]	73 nM	> 10 µM
Fc1ccc(N(Cc2ccc(-c3nnc(C(F)F)o3)cc2F)C(=S)N2C[C@@H]3C[C@H]2CN3C2COC2)cc1F [Compound 43, (1S,4S)—N-(4-(5-(difluoromethyl)-1,3,4-oxadiazol-2-yl)-2-fluorobenzyl)-N-(3,4-difluorophenyl)-5-(oxetan-3-yl)-2,5-diazabicyclo[2.2.1]heptan-2-carbothioamide]	77 nM	> 10 µM
CN1CC2(CCN(C(=S)N(Cc3ccc(-c4nnc(C(F)F)o4)cc3F)c3ccc(F)c(F)c3)CC2)C1 [Compound 44, N-(4-(5-(difluoromethyl)-1,3,4-oxadiazol-2-yl)-2-fluorobenzyl)-N-(3,4-difluorophenyl)-2-methyl-2,7-diazaspiro[3.5]nonan-7-carbothioamide]	80 nM	> 10 µM
Fc1ccc(N(Cc2ccc(-c3nnc(C(F)F)o3)cc2F)C(=S)N2CCC3(CC2)CN(C2COC2)C3)cc1F [Compound 45, N-(4-(5-(difluoromethyl)-1,3,4-oxadiazol-2-yl)-2-fluorobenzyl)-N-(3,4-difluorophenyl)-2-(oxetan-3-yl)-2,7-diazaspiro[3.5]nonan-7-carbothioamide]	196 nM	> 10 µM
CN1CCC2(CC1)CN(C(=S)N(Cc1ccc(-c3nnc(C(F)F)o3)cc1F)c1ccc(F)c(F)c1)C2 [Compound 46, N-(4-(5-(difluoromethyl)-1,3,4-oxadiazol-2-yl)-2-fluorobenzyl)-N-(3,4-difluorophenyl)-7-methyl-2,7-diazaspiro[3.5]nonan-2-carbothioamide]	28 nM	> 10 µM
